For series [1], the system named is ryegrass under high-temperature stress. Briefly: Ryegrass under high-temperature stress. It is filed as in vivo. The following applies: for PIABS (photosynthetic performance index): ryegrass after 45° C. for 12 h; for Heat damage index: 45° C. 12 h, recovered 7 d. The protocol: Set 4 groups for each concentration and meanwhile set a room-temperature blank control. Weigh 0.8 g of ryegrass seeds per bowl, sow them in bowls with a diameter of 8.5 cm, and grow in a greenhouse at 25° C., RH 60%-70% and luminous intensity of 200 μmol m^−2s^−1(12 h illumination/12 h darkness). Start treatment after ryegrass has grown for 7 dby the method of spraying a 2-amino-3-(4-hydroxyphenyl) butyric acid solution on the leaf surface twice in 24 h.24 h after the second treatment, transfer them to an illumination incubator of 45° C. for high-temperature stress treatment, and after 12 h, conduct dark treatment at room temperature for 30 min, then determine the chlorophyll fluorescence of […] leaves by plant efficiency Handy-PEA, then transfer the plants to a 25° C. greenhouse and recover them for 7 d, observe and calculate the damage condition of the plants and calculate the heat damage levels. The heat damage grading standard is shown in Table 9 and the heat damage calculation formula is as follows.

Another series deals with rat brain glial cells. The following applies: concentration of 10μgmL^−1; cited from earlier work.
In series [2] the test system is Arabidopsis under high-temperature stress. Briefly: Arabidopsis under high-temperature stress. In kind it is in vivo. Conditions: for PIABS (photosynthetic performance index): Arabidopsis after 45° C. for 12 h; for Heat damage index: 45° C. 12 h, recovered 7 d. The protocol: Take 2-amino-3-hydroxy-3-methylbutyric acid, dissolve it with distilled water, then dilute the solution with distilled water by gradient into 10 nM, 100 nM, 1,000 nM and 10,000 nM solutions, set a blank control, and meanwhile add 0.02% Tween 20 as a surfactant. Set 4 groups for each concentration and meanwhile set a room-temperature blank control. Sow about 50 Arabidopsis seeds in each bowl with a diameter of 8.5 cm, and grow in a greenhouse at 25° C., RH 60%-70% and luminous intensity of 200 μmol m^−2s^−1(16 h illumination/8 h darkness). Start treatment in 21 d of the Arabidopsis seedling stage by the method of spraying a 2-amino-3-hydroxy-3-methylbutyric acid solution on the leaf surface twice in 24 h. 24 h after the second treatment, transfer them to an illumination incubator of 45° C. for high-temperature stress treatment, and after 12 h, conduct dark treatment at room temperature for 30 min, then determine the chlorophyll fluorescence of Arabidopsis leaves by plant efficiency Handy-PEA, then transfer the plants to a 25° C. greenhouse and recover them for 7 d, observe and calculate the damage condition of the plants and calculate the heat damage levels. The heat damage grading standard is shown in Table 9 and the heat damage index calculation formula is as follows.

The mark [3] stands for this setting: 10,000 nM (so in the source), ryegrass, high-temperature stress, vs 0 nM.
The mark [4] stands for this setting: 10,000 nM, Arabidopsis, high-temperature stress, vs 0 nM.

Structures are written as SMILES.

In the case of `CC(c1ccc(O)cc1)C(N)C(=O)O` (stereo not drawn) [2-amino-3-(4-hydroxyphenyl) butyric acid], the “PIABS (photosynthetic performance index)” value turned out to be 0.78 ± 0.23bc in series [1] (1 nM), 0.95 ± 0.41bc in series [1] (10 nM), 1.50 ± 0.54b in series [1] (100 nM) and 2.61 ± 1.05ab in series [1] (1,000 nM). Further, the Heat damage index is reported as 81% in series [1] (1 nM, ryegrass); 66.67% in series [1] (10 nM, ryegrass); 55% in series [1] (100 nM, ryegrass); 35% in series [1] (1,000 nM, ryegrass). Besides, the “Decrease of heat damage index” value in series [1] (setting [3]) is 55%. For the same molecule, in series [1] (setting [3]), the “Increase of PIABS” value worked out at 366%.
As for `CC(C)(O)C(N)C(=O)O` (stereo not drawn) [2-amino-3-hydroxy-3-methylbutyric acid], the “Toxicity to rat brain glial cells” value in the series with rat brain glial cells is recorded as “weakly toxic”. Also, the “PIABS (photosynthetic performance index)” value in series [2] (10 nM) was determined as 10.60 ± 0.32 c; in series [2] (100 nM), 11.27 ± 0.89 c; in series [2] (1,000 nM), 13.61 ± 0.38 b; in series [2] (10,000 nM) it was 15.60 ± 0.78 ab. In addition, the Heat damage index in series [2] (10 nM, Arabidopsis) is 60%; in series [2] (100 nM, Arabidopsis), 45%; in series [2] (1,000 nM, Arabidopsis), 20%; in series [2] (10,000 nM, Arabidopsis) it was 15%. Besides, in series [2] (setting [4]), the “Decrease of heat damage index” value is 65%. Moreover, the “Increase of PIABS” value in series [2] (setting [4]) came out at 106%.

The record behind these values is US20250169496A1, “USE OF 2-AMINO-3-HYDROXY-3-METHYLBUTYRIC ACID AND/OR 2-AMINO-3-(4-HYDROXYPHENYL) BUTYRIC ACID” (NANJING TIANNONG BIOTECHNOLOGY CO., LTD., priority 2021, published 2025).
